Like-named read-outs stand apart in the source and are kept apart here.
Tests used:
[1] = tested on: paddy rice; assay: Test Example 5: Wagner pot test, chemical injury on paddy rice; assay type: in vivo, paddy rice (Asahi species); further: key: 5: Completely killed; 4: Considerably injured; 3: Moderately injured; 2: A little injured; 1: Slightly injured; 0: Not injured
Method: (§1) In a 1/7500 are Wagner pot, sieved paddy field soil (alluvial soil) was charged. Thereafter, in the center portion of the pot, 2 roots of paddy rice (Asahi species) at the 2- to 3-leaf stage were transplanted and 20 seeds of Bulrush per pot were seeded in the surface of the above soil. The pot was submerged at the depth of about 2 cm. The other Dopatrium junceum and umbrella plant were generated naturally. After seeding, when each of the weeds reached the same leaf age as defined in Table 5 given herein, a predetermined concentration of the emulsion prepared according to Example 4 was applied dropwise on the surface of the pot. The test was carried out by repeating the same test three times per area and the results were determined 20 days after the application of the chemicals with regard to the herbicidal effect and chemical injury on paddy rice on the basis of the evaluation index as shown below.
(§2) As the comparative chemicals Molinate, Benthiocarb and DCMU, those commercially available were used.

[2] = tested on: paddy rice; assay: whole plant or invertebrate; assay type: in vivo, paddy rice (Asahi species); settings: for inhibition at 1000 g/ha / inhibition at 3000 g/ha / inhibition at 9000 g/ha / inhibition at 1500 g/ha: Oryza sativa, 720 h
Procedure, shortened: (§3)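 Barnyardgrass seeded in flooded alluvial paddy soil (~3 cm water) in concrete pots, with 2.5-leaf Asahi rice transplanted before weed emergence. Granules applied at weed 1-leaf or 5-leaf stage. Dry weights measured 30 days after treatment; inhibition rate calculated versus untreated area.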

[3] = tested on: Echinochloa crus-galli var. oryzicola; assay: Test Example 4: field test in submerged directly seeded paddy field, Echinochloa crus-galli var. oryzicola; assay type: in vivo; settings: for inhibition at 3000 g/ha: Echinochloa crus-galli, 504 h, 300 g/10 are, emulsion, 2- to 3-leaf stage, 21 days after application, read-out: Inhibition (%) of E. crus-galli var. oryzicola
Method: (§4) In a Wagner pot of 1/500 are, paddy field soil (alluvial soil) was placed and 50 seeds of Echinochloa crus-galli var. oryzicola and 30 seeds of paddy rice were seeded in the surface layer of said soil and the submerging depth was kept at about 1 cm. When Echinochloa crus-galli var. oryzicola reached at the one leaf stage and 5-leaf stage, the emulsion of a predetermined concentration, prepared according to Example 4 was added dropwise. After 30 days from the treatment with the chemical, dry weights of Echinochloa crus-galli var. oryzicola and paddy rice were measured and the inhibition rate was calculated with reference to untreated area. [formula]
(§5) In a 10 m^2 paddy field, 30 g of Echinochloa crus-galli var. oryzicola seeds were seeded at the time of puddling and the depth of submerging was kept at 3-5 cm. 3 Days after the puddling, 50 g of paddy rice at the emergence stage (Asahi species) were seeded. When Echinochloa crus-galli var. oryzicola and paddy rice reached a 2- to 3-leaf stage, a predetermined dose of the emulsion prepared according to Example 4 was applied uniformly by means of a manual spraying machine. Test results were examined 21 days after the application of the chemicals in the similar manner as in Test Example 1.
(§6) The comparative chemical 1 used was that commercially available and the comparative chemical 2 used was prepared according to Example 4.

[4] = tested on: Umbrella plant; assay: Test Example 5: Wagner pot test, herbicidal effect on umbrella plant; assay type: in vivo; settings: 20 days after application
Method: as §1, §2
(§7) In the above table, the inhibition rate was calculated according to the method as described in Test Example 1.

[5] = tested on: Bulrush; assay: Test Example 5: Wagner pot test, herbicidal effect on Bulrush; assay type: in vivo
Method: as §1, §2, §7

[6] = tested on: Echinochloa crus-galli var. oryzicola; assay: Test Example 2: concrete pot test on killing effect, Echinochloa crus-galli var. oryzicola; assay type: in vivo; settings: for inhibition at 1000 g/ha / inhibition at 3000 g/ha / inhibition at 9000 g/ha / inhibition at 1500 g/ha: Echinochloa crus-galli, 720 h
Procedure, shortened: as §3

[7] = tested on: paddy rice; assay: Test Example 4: field test in submerged directly seeded paddy field, paddy rice; assay type: in vivo, paddy rice (Asahi species); settings: Oryza sativa, 504 h; 300 g/10 are, emulsion, 2- to 3-leaf stage, 21 days after application
Method: as §4, §5, §6

[8] = tested on: Dopatrium junceum; assay: Test Example 5: Wagner pot test, herbicidal effect on Dopatrium junceum; assay type: in vivo
Method: as §1, §2, §7

[9] = tested on: Echinochloa crus-galli var. oryzicola; assay: Test Example 1: pot test on selectivity, inhibition of Echinochloa crus-galli var. oryzicola; assay type: in vivo; settings: for inhibition at 750 g/ha / inhibition at 1500 g/ha / inhibition at 3000 g/ha / inhibition at 6000 g/ha / inhibition at 9000 g/ha: Echinochloa crus-galli, 720 h
Procedure, shortened: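 Inhibition rate was calculated from weed and rice dry weight relative to untreated pots, measured 30 days after treatment. The emulsion, at predetermined concentrations, was applied dropwise to flooded (~1 cm) paddy-soil pots sown with Echinochloa crus-galli var. oryzicola and rice, at the weed's one-leaf and five-leaf stages.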

[10] = tested on: paddy rice; assay: Test Example 1: pot test on selectivity, inhibition of paddy rice; assay type: in vivo; settings: for inhibition at 750 g/ha / inhibition at 1500 g/ha / inhibition at 3000 g/ha / inhibition at 6000 g/ha / inhibition at 9000 g/ha: Oryza sativa, 720 h
Procedure, shortened: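 Alluvial paddy soil in pots sown with Echinochloa crus-galli var. oryzicola (50 seeds) and paddy rice (30 seeds), submerged about 1 cm. Dry weights taken 30 days after chemical treatment; inhibition rate calculated relative to untreated area.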

[11] = tested on: paddy rice; settings: known upland herbicides; cited from earlier work
[12] = tested on: various weeds; settings: known upland herbicides; cited from earlier work
[13] = tested on: Echinochloa crus-galli var. oryzicola; assay: Test Example 3: field test in transplanted paddy field, Echinochloa crus-galli var. oryzicola; assay type: in vivo; settings: farm test in transplanted paddy field
Method: as §4
In a 10 m^2 paddy field, young seedlings of paddy rice (Asahi species) at the 2,5-leaf stage were transplanted 30 days after the puddling the submerging at the depth of 3-5 cm. 25 Days after the transplantation, when Echinochloa crus-galli var. oryzicola reached 4-leaf stage, a predetermined dose of the granule prepared according to Example 1 was applied. Test results were examined 60 days after the transplantation of paddy rice in the similar manner as in Test Example 1.
Comparative chemicals used were all those commercially available and in the case of the comparative chemical 2, CNP was applied 3 days after the transplantation of paddy rice and after 25 days a mixture of Benthiocarb and Simetryne was applied.

[14] = 600 g/10a, 3 tillers, 20 days after application
[15] = 600 g/10a, leaf age 3, 20 days after application
[16] = read-out: Inhibition (%) by treatment at 1-leaf stage of E. crus-galli var. oryzicola, paddy rice
[17] = read-out: Inhibition (%) by treatment at 5-leaf stage of E. crus-galli var. oryzicola, paddy rice
[18] = 600 g/10a, leaf age 2 (first group of columns)
[19] = 600 g/10a, leaf age 2 (second group of columns)
[20] = 600 g/10a, leaf age 3-5, 20 days after application
[21] = read-out: Inhibition (%) by treatment at 1-leaf stage of E. crus-galli var. oryzicola, E. crus-galli var. oryzicola
[22] = read-out: Inhibition (%) by treatment at 5-leaf stage of E. crus-galli var. oryzicola, E. crus-galli var. oryzicola
[23] = 600 g/10a, leaf age 2, 20 days after application
[24] = read-out: Inhibition (%) by treatment at 1-leaf stage, E. crus-galli var. oryzicola
[25] = read-out: Inhibition (%) by treatment at 5-leaf stage, E. crus-galli var. oryzicola
[26] = read-out: Inhibition (%) by treatment at 1-leaf stage, paddy rice
[27] = read-out: Inhibition (%) by treatment at 5-leaf stage, paddy rice
[28] = 300 g/10a, leaf age 3, 20 days after application
[29] = versus 3-(4-(3-chloro-2-butenyloxy)phenyl)-1,1-dimethyl urea

CCN(CC)C(=O)SCc1ccc(Cl)cc1 [Benthiocarb, 4-chlorobenzyl-N,N-diethylthiolcarbamate]
Chemical injury on paddy rice [1, 14]: 0 | Chemical injury on paddy rice [1, 15]: 2 | inhibition at 1000 g/ha [2, 16]: 0% | inhibition at 3000 g/ha [2, 16]: 10% | inhibition at 9000 g/ha [2, 16]: 46% | inhibition at 1000 g/ha [2, 17]: 0% | inhibition at 3000 g/ha [2, 17]: 0% | inhibition at 9000 g/ha [2, 17]: 10% | inhibition at 3000 g/ha [3]: 76% | Weed kill degree, Umbrella plant [4, 18]: 5 (100) | Weed kill degree, Umbrella plant [4, 19]: 5 (100) | Weed kill degree, Bulrush [5, 15]: 2 (60-79) | Weed kill degree, Bulrush [5, 20]: 4 (90-99) | inhibition at 1000 g/ha [6, 21]: 82% | inhibition at 3000 g/ha [6, 21]: 100% | inhibition at 9000 g/ha [6, 21]: 100% | inhibition at 1000 g/ha [6, 22]: 0% | inhibition at 3000 g/ha [6, 22]: 6% | inhibition at 9000 g/ha [6, 22]: 23% | inhibition at 3000 g/ha [7]: 15% | Weed kill degree, Dopatrium junceum [8, 23]: 5 (100) | Weed kill degree, Dopatrium junceum [8, 15]: 5 (100)

CON(C)C(=O)Nc1ccc(Cl)c(Cl)c1 [Linuron, 3-(3,4-dichlorophenyl)-1-methoxy-1-methyl urea]
inhibition at 750 g/ha [9, 24]: 82% | inhibition at 1500 g/ha [9, 24]: 100% | inhibition at 3000 g/ha [9, 24]: 100% | inhibition at 6000 g/ha [9, 24]: 100% | inhibition at 9000 g/ha [9, 24]: 100% | inhibition at 750 g/ha [9, 25]: 72% | inhibition at 1500 g/ha [9, 25]: 100% | inhibition at 3000 g/ha [9, 25]: 100% | inhibition at 6000 g/ha [9, 25]: 100% | inhibition at 9000 g/ha [9, 25]: 100% | inhibition at 750 g/ha [10, 26]: 81% | inhibition at 1500 g/ha [10, 26]: 100% | inhibition at 3000 g/ha [10, 26]: 100% | inhibition at 6000 g/ha [10, 26]: 100% | inhibition at 9000 g/ha [10, 26]: 100% | inhibition at 750 g/ha [10, 27]: 53% | inhibition at 1500 g/ha [10, 27]: 100% | inhibition at 3000 g/ha [10, 27]: 100% | inhibition at 6000 g/ha [10, 27]: 100% | inhibition at 9000 g/ha [10, 27]: 100% | selectivity between Echinochloa crus-galli var. oryzicola and paddy rice ([10]; in vivo): kill not only Echinochloa crus-galli var. oryzicola but also paddy rice | chemical injury to paddy rice [11]: strong chemical injury to paddy rice | herbicidal activity against various weeds [12]: strong herbicidal activity

CCSC(=O)N1CCCCCC1 [Molinate, s-ethyl hexahydro-1H-azepine-1-carbothioate]
Chemical injury on paddy rice ([1]; 300 g/10a, 3 tillers, 20 days after application): 0 | Chemical injury on paddy rice [1, 28]: 0 | Chemical injury on paddy rice [1, 14]: 0 | Chemical injury on paddy rice [1, 15]: 0 | inhibition at 1500 g/ha [2, 16]: 0% | inhibition at 3000 g/ha [2, 16]: 8% | inhibition at 9000 g/ha [2, 16]: 36% | inhibition at 1500 g/ha [2, 17]: 0% | inhibition at 3000 g/ha [2, 17]: 0% | inhibition at 9000 g/ha [2, 17]: 8% | inhibition at 3000 g/ha [3]: 83% | Weed kill degree, Umbrella plant ([4]; 300 g/10a, leaf age 2 (first group of columns)): 1 (40-59) | Weed kill degree, Umbrella plant ([4]; 300 g/10a, leaf age 2 (second group of columns)): 4 (90-99) | Weed kill degree, Umbrella plant [4, 18]: 1 (40-59) | Weed kill degree, Umbrella plant [4, 19]: 5 (100) | Weed kill degree, Bulrush [5, 28]: 0 (less than 39) | Weed kill degree, Bulrush ([5]; 300 g/10a, leaf age 3-5, 20 days after application): 1 (40-59) | Weed kill degree, Bulrush [5, 15]: 5 (100) | Weed kill degree, Bulrush [5, 20]: 2 (60-79) | inhibition at 1500 g/ha [6, 21]: 86% | inhibition at 3000 g/ha [6, 21]: 100% | inhibition at 9000 g/ha [6, 21]: 100% | inhibition at 1500 g/ha [6, 22]: 0% | inhibition at 3000 g/ha [6, 22]: 13% | inhibition at 9000 g/ha [6, 22]: 31% | inhibition at 3000 g/ha [7]: 12% | Weed kill degree, Dopatrium junceum ([8]; 300 g/10a, leaf age 2, 20 days after application): 2 (60-79) | Weed kill degree, Dopatrium junceum [8, 28]: 4 (90-99) | Weed kill degree, Dopatrium junceum [8, 23]: 5 (100) | Weed kill degree, Dopatrium junceum [8, 15]: 5 (100)

CC=CCOc1ccc(NC(=O)N(C)C)cc1 [the compound of the invention, 3-(4-crotyloxyphenyl)-1,1-dimethyl urea]
killing of Echinochloa crus-galli var. oryzicola not killed by conventional systematic treatment [13]: completely killed | Chemical injury on paddy rice ([2]; in vivo): no chemical injury on paddy rice | killing of Echinochloa crus-galli var. oryzicola in submerged direct seeding cultivation ([3]; submerged direct seeding): selectively kill | power for killing Echinochloa crus-galli var. oryzicola at the 5-leaf stage ([9]; as compared with CBPDU): more increased | herbicidal activity against Echinochloa crus-galli var. oryzicola at 5-leaf stage [9, 29]: superior | herbicidal activity against Echinochloa crus-galli var. oryzicola ([9]; versus a compound disclosed in Japanese Pat. No. 2329/1973): superior herbicidal activity | killing of Echinochloa crus-galli var. oryzicola at 5-leaf stage ([6]; 5-leaf stage): completely kill | herbicidal activity against Echinochloa crus-galli var. oryzicola at 1-leaf stage ([6]; compared with the known herbicides): similarly high herbicidal activity | Chemical injury on paddy rice ([10]; as compared with CBPDU): more decreased | chemical injury [10, 29]: superior | selectivity [10, 29]: selectivity over a wide range

Source: patent publication US4255183A, “Substituted phenyl urea and herbicides for use in paddy field” (Hokko Chemical Industry Co., Ltd., priority 1977, dated 1981)
